{
  "source": "paper PMC4224610",
  "about": "(Chemistry & biology, 2014)",
  "assay_type_in_all_cases": "biochemical",
  "key": {"VhAasS [1]": {"target": "T1, VhAasS (Vibrio harveyi, UniProt Q00IB3)", "test": "UREA-PAGE and mass spectrometry of ACP loading", "conditions": "holo-E. coli ACP as acceptor, ATP, MgCl2, pH 8, 37 °C overnight"}, "VhAasS [2]": {"target": "T1, VhAasS", "test": "UREA-PAGE of ACP loading", "conditions": "holo-E. coli AcpP as acceptor, ATP, MgCl2, DTT, 37 °C overnight"}, "TTHA0604": {"target": "T2, TTHA0604 (Thermus thermophilus, UniProt Q5SKN9)", "T2 sequence (Q5SKN9 1-541)": "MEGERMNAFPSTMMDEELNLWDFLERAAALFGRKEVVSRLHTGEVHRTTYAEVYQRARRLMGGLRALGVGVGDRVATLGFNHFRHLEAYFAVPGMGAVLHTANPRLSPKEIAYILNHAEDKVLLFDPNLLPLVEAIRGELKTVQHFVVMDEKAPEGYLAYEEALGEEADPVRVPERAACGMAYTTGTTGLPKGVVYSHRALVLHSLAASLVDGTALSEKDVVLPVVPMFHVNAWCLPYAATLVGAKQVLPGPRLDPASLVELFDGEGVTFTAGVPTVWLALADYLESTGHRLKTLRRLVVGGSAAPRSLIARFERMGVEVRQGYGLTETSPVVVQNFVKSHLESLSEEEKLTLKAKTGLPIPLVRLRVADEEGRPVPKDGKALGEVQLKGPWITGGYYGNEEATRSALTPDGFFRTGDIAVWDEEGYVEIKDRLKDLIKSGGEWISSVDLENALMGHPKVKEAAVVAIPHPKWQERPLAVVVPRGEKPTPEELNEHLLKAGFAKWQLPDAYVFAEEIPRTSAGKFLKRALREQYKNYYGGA", "test": "coupled NADH assay at […] nm", "conditions": "decanoic acid, ATP, MgCl2, pH 8 100 mM Tris"}, "Slr1609": {"target": "T3, Slr1609 (Synechocystis sp. PCC 6803, UniProt P73004)", "T3 sequence (P73004 1-696)": "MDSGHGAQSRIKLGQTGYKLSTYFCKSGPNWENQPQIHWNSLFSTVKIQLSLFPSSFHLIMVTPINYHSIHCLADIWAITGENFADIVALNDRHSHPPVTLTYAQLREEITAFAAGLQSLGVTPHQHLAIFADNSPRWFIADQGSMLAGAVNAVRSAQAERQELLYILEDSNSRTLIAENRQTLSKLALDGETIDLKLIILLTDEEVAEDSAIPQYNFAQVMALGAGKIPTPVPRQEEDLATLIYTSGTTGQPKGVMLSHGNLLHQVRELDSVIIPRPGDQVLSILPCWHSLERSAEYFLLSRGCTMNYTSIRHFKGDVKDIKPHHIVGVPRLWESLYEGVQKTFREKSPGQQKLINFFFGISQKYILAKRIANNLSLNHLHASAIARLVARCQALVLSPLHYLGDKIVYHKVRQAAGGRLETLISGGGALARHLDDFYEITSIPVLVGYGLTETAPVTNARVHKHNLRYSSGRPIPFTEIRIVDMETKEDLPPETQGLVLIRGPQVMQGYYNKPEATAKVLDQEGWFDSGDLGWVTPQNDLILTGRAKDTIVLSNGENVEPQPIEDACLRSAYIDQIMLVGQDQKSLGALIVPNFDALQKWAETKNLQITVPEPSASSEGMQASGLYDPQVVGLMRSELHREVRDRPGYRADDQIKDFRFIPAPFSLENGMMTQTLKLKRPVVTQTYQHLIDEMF", "test": "coupled NADH assay at […] nm", "conditions": "decanoic acid, ATP, MgCl2, pH 8 100 mM Tris"}},
  "data": [
    {"smiles": "O=C(O)CCCCC(=O)c1ccccc1", "note": "[5-benzoylvaleric acid]", "values": [
      {"measurement": "UREA-PAGE and mass spectrometry of ACP loading", "setting": "VhAasS [1]", "result": "functionalized fatty acids"}
    ]},
    {"smiles": "CCCCCCCCCC(=O)O", "note": "[decanoic acid]", "values": [
      {"measurement": "UREA-PAGE of ACP loading", "setting": "VhAasS [2]", "result": "VhAasS showed increased loading over Slr1609, TTHA0604, and AAE15"}
    ]},
    {"smiles": "CC(C)(COP(=O)(O)OP(=O)(O)OC[C@H]1O[C@@H](n2cnc3c(N)ncnc32)[C@H](O)[C@@H]1OP(=O)(O)O)[C@@H](O)C(=O)NCCC(=O)NCCS", "note": "[coenzyme A]", "values": [
      {"measurement": "coupled NADH assay at 340 nm; DTNB assay of CoA consumption; HPLC-MS", "setting": "TTHA0604", "result": "both TTHA0604 and Slr1609 show acyl-CoA ligase activity"},
      {"measurement": "coupled NADH assay at 340 nm; DTNB assay of CoA consumption; HPLC-MS", "setting": "Slr1609", "result": "both TTHA0604 and Slr1609 show acyl-CoA ligase activity"}
    ]}
  ]
}
